{
  "source": "patent US20240239849A1",
  "about": "“PEPTIDE ENTITIES WITH ANTIMICROBIAL ACTIVITY AGAINST MULTI-DRUG RESISTANT PATHOGENS” (CENTRO DE INVESTIGACIÓN Y DESARROLLO DE MEDICAMENTOS. CIDEM, priority 2020, published 2024)",
  "key": {"[1]": {"test_system": "K. pneumoniae (multi-resistant clinical isolate)", "test": "checkerboard test, Meropenem/peptide combinations", "format": "cell-based, Klebsiella pneumoniae", "details": "meropenem alone, denominator of FICA", "method": "(§1) Only strains from clinical isolates of Gram-negative bacteria Klebsiella pneumoniae and Gram-positive Staphylococcus aureus multiresistant to antibiotics were chosen to carry out the combination tests between the peptides. The experiments were carried out according to the methodology of the test described as “checkerboard” or checkerboard [Huang, R.-y., et al., Isobologram Analysis: A Comprehensive Review of Methodology and Current Research. Frontiers in Pharmacology, 2019. 10: p. 1222] This test allows the determination of the fractional inhibitory concentration index (FICI) following Equation 3, which establishes the classification of the effects obtained as follows: synergy (FICI≤0.5), additive (0.5<FICI≤ 1), indifferent (1<FICI≤2) and antagonism (FICI>2).\n(§2) Where: MICA: minimum inhibitory concentration of compound A; MICB: minimum inhibitory concentration of compound B; MICAB: minimum concentration of A that combined with B inhibits growth; MICBA: minimum concentration of B that combined with A inhibits growth. The checkerboard experiment was performed in sterile 96-well polypropylene plates (Eppendorf, Germany). Isolated colonies of each bacterium were used to create 1×10^5 CFU bacterial cultures in PBS, referred to as a working culture. In addition, 64 μM stock solutions of the peptides were prepared in PBS. Two-fold dilutions in PBS of each peptide were made in 50 μL final volume. […]"}, "[2]": {"test_system": "S. aureus (multi-resistant clinical isolate)", "test": "checkerboard test, Meropenem/peptide combinations", "format": "cell-based, Staphylococcus aureus", "details": "meropenem alone, denominator of FICA", "method": "as §1, §2"}},
  "data": [
    {"compound": "C[C@@H](O)[C@H]1C(=O)N2C(C(=O)O)=C(S[C@@H]3CN[C@H](C(=O)N(C)C)C3)[C@H](C)[C@H]12", "note": "[MER, Meropenem, reference compound]", "values": [
      {"measurement": "MICA (minimum inhibitory concentration of compound A)", "setting": "[1]", "value": 8.0, "unit": "µg/mL"},
      {"measurement": "MICA (minimum inhibitory concentration of compound A)", "setting": "[2]", "value": 8.0, "unit": "µg/mL"}
    ]}
  ]
}
